From patent US20240246942A1, “KINASE INHIBITORS FOR THE TREATMENT OF NEURODEGENERATIVE DISEASES” (priority 2020, published 2024)

Assays:
Test in all cases: biochemical
[1] = target: T1, panel of 374 wild-type kinases (Homo sapiens, UniProt O15075); conditions: read-out: % Enzyme Activity (relative to DMSO controls), DCAMKL1
T1 construct: purchased Reaction Biology Corporation
T1 sequence (O15075 1-740): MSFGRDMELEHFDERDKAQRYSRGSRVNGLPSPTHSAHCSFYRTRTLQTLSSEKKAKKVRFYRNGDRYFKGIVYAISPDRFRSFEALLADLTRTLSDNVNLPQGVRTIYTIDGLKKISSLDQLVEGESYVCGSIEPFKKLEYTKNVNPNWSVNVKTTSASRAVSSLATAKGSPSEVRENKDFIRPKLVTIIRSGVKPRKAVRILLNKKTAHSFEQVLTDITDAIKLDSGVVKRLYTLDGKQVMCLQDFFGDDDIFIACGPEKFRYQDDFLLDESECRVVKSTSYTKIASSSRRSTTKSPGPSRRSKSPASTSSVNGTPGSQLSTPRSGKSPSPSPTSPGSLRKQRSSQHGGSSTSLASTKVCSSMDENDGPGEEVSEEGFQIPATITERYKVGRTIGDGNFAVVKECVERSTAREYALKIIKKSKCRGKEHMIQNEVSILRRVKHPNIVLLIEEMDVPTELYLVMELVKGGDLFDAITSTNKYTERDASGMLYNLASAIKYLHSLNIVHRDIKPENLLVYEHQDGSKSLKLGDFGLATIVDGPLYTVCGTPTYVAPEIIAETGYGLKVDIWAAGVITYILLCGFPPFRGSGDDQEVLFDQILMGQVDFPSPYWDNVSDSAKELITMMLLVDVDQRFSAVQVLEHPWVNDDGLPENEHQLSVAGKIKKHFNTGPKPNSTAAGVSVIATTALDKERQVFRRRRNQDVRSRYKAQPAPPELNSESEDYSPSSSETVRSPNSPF

[2] = target: T2, panel of 374 wild-type kinases (Homo sapiens, UniProt O95747); conditions: read-out: % Enzyme Activity (relative to DMSO controls), OSR1/OXSR1
T2 construct: purchased Reaction Biology Corporation
T2 sequence (O95747 whole entry): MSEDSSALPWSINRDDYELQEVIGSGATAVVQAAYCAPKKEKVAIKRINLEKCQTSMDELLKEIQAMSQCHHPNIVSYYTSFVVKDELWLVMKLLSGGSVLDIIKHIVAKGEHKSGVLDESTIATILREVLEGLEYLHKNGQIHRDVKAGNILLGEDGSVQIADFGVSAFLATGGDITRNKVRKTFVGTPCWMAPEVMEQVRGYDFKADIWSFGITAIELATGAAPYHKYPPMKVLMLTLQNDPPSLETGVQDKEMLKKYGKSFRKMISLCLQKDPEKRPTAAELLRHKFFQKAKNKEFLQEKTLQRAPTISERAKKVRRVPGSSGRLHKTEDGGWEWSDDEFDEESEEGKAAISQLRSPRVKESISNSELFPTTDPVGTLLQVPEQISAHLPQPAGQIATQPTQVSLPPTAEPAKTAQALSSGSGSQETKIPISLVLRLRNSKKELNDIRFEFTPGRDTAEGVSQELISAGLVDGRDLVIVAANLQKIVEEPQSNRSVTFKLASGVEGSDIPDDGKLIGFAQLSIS

[3] = target: T3, panel of 374 wild-type kinases (Homo sapiens, UniProt P10398); conditions: read-out: % Enzyme Activity (relative to DMSO controls), ARAF
T3 construct: purchased Reaction Biology Corporation
T3 sequence (P10398 1-606): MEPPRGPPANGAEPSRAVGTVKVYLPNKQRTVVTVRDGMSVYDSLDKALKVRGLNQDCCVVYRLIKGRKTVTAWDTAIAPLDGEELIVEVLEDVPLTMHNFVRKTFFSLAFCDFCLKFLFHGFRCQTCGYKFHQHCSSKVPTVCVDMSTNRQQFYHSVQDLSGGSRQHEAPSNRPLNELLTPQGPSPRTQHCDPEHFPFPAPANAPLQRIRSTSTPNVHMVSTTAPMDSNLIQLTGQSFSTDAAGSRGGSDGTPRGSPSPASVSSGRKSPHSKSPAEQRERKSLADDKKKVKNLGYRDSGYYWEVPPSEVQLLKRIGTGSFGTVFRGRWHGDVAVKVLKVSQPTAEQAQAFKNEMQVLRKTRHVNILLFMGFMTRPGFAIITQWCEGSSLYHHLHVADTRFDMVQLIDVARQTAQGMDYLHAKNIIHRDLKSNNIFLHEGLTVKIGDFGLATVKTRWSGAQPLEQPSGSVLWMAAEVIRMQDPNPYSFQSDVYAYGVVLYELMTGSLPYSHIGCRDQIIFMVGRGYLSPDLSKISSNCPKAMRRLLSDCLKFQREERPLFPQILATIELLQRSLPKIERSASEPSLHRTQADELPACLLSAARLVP

[4] = target: T4, panel of 374 wild-type kinases (Homo sapiens, UniProt P53355); conditions: read-out: % Enzyme Activity (relative to DMSO controls), DAPK1
T4 construct: purchased Reaction Biology Corporation
T4 sequence (P53355 whole entry): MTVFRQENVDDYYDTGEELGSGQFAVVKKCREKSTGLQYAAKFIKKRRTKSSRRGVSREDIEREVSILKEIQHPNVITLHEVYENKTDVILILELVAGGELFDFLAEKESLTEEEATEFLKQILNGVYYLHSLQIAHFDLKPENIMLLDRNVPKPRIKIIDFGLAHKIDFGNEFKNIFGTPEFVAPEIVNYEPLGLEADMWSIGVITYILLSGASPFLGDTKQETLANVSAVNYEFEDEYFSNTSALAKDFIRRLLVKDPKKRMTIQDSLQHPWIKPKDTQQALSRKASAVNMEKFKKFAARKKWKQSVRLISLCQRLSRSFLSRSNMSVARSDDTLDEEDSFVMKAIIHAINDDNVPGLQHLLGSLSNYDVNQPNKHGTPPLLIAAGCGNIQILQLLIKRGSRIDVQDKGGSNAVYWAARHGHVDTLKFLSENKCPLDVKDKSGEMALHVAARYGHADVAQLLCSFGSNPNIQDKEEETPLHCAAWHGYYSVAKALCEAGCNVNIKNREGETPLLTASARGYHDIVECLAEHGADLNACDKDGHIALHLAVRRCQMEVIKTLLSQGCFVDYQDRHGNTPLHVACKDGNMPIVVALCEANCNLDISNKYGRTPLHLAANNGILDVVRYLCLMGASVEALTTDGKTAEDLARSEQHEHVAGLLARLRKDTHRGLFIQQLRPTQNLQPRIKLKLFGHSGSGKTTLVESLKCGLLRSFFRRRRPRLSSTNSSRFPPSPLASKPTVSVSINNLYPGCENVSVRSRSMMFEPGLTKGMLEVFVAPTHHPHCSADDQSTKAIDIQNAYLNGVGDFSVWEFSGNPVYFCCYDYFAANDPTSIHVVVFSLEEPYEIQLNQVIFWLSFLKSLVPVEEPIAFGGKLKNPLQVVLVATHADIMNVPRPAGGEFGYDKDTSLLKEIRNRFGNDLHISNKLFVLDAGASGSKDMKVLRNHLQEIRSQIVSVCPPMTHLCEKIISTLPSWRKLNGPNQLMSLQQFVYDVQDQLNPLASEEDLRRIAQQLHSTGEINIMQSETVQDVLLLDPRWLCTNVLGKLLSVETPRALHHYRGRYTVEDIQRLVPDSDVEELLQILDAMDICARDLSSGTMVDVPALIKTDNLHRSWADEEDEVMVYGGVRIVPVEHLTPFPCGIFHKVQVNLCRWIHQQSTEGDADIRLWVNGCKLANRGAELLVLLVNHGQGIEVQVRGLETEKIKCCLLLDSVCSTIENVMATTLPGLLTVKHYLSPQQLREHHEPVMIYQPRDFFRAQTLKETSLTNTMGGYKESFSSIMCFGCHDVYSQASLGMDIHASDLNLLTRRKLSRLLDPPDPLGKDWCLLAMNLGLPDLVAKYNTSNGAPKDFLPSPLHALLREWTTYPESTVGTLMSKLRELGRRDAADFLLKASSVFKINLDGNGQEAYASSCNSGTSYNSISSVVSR

[5] = target: T5, panel of 374 wild-type kinases (Homo sapiens, UniProt Q96PF2); conditions: read-out: % Enzyme Activity (relative to DMSO controls), kinase TSSK2
T5 construct: purchased Reaction Biology Corporation
T5 sequence (Q96PF2 1-358): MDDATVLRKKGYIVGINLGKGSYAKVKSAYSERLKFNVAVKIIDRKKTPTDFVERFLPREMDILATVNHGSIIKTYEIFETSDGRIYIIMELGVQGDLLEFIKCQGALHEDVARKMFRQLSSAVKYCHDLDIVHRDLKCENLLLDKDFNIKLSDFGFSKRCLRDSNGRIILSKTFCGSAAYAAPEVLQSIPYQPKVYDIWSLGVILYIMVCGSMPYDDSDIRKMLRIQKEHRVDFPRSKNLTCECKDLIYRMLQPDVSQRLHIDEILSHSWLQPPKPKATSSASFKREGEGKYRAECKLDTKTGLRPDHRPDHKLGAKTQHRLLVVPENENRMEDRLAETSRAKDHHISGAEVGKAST

[6] = target: T6, panel of 374 wild-type kinases (Homo sapiens, UniProt Q9H3Y6); conditions: read-out: % Enzyme Activity (relative to DMSO controls), kinase SRMS
T6 construct: purchased Reaction Biology Corporation
T6 sequence (Q9H3Y6 whole entry): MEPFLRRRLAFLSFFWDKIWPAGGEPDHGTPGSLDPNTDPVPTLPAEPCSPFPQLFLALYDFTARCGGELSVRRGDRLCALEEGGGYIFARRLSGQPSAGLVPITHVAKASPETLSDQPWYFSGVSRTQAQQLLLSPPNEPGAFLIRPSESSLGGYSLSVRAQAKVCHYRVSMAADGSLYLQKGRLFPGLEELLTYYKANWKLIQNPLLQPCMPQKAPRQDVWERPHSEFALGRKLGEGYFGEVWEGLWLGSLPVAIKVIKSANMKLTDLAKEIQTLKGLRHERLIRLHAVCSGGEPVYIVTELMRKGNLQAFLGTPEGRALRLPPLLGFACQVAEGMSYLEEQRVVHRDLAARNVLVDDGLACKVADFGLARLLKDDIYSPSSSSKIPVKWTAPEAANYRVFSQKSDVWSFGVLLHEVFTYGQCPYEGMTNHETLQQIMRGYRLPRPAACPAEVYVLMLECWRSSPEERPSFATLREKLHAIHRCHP

[7] = target: T7, panel of 374 wild-type kinases (Homo sapiens, UniProt Q9NRH2); conditions: read-out: % Enzyme Activity (relative to DMSO controls), kinase SNRK
T7 construct: purchased Reaction Biology Corporation
T7 sequence (Q9NRH2 1-765): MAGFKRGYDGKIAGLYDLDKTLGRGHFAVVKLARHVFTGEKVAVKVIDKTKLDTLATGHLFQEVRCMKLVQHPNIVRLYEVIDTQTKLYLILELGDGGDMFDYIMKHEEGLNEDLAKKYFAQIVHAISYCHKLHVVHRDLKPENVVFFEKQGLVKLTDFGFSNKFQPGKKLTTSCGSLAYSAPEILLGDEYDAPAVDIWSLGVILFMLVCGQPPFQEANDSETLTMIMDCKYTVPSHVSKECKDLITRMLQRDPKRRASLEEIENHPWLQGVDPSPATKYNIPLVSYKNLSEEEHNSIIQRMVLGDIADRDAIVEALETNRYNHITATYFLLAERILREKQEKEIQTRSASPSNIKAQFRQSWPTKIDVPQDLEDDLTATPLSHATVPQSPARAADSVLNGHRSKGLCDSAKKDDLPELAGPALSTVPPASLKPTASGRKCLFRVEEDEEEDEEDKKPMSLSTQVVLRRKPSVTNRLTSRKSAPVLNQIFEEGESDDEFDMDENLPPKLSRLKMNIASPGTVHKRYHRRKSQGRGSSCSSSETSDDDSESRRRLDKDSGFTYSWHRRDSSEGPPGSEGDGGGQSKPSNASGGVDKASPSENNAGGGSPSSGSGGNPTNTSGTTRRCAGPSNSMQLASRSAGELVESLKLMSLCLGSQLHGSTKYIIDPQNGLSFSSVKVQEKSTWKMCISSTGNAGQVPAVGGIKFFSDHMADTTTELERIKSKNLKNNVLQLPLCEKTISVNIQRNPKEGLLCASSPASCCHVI

SMILES: O=C(Nc1cnn(-c2csc(C(=O)NC3COC3)c2)c1)Nc1ccccc1Cl [Compound 17, 4-(4-(3-(2-chlorophenyl)ureido)-1H-pyrazol-1-yl)-N-(oxetan-3-yl)thiophene-2-carboxamide]
- remaining activity at 5 µM [1]: 99.2%
- remaining activity at 5 µM [2]: 92.6%
- remaining activity at 5 µM [3]: 95.1%
- remaining activity at 5 µM [4]: 104%
- remaining activity at 5 µM [5]: 91.5%
- remaining activity at 5 µM [6]: 99.8%
- remaining activity at 5 µM [7]: 96.8%

SMILES: O=C(Nc1cnn(-c2csc(C(=O)NC3COC3)c2)c1)Nc1c(F)cccc1Cl [Compound 25, 4-(4-(3-(2-chloro-6-fluorophenyl)ureido)-1H-pyrazol-1-yl)-N-(oxetan-3-yl)thiophene-2-carboxamide]
- remaining activity at 5 µM [1]: 84.2%
- remaining activity at 5 µM [2]: 96.5%
- remaining activity at 5 µM [3]: 94.4%
- remaining activity at 5 µM [4]: 98.9%
- remaining activity at 5 µM [5]: 95.1%
- remaining activity at 5 µM [6]: 105%
- remaining activity at 5 µM [7]: 98.8%

SMILES: Cc1sc(C(=O)NC2COC2)cc1-n1cc(NC(=O)Nc2c(F)cccc2Cl)cn1 [Compound 27, 4-(4-(3-(2-chloro-6-fluorophenyl)ureido)-1H-pyrazol-1-yl)-5-methyl-N-(oxetan-3-yl)thiophene-2-carboxamide]
- remaining activity at 10 µM ([1]; 10 uM): 67.2%
- remaining activity at 10 µM ([2]; 10 uM): 127%
- remaining activity at 10 µM ([3]; 10 uM): 84.1%
- remaining activity at 10 µM ([4]; 10 uM): 104%
- remaining activity at 10 µM ([5]; 10 uM): 84.7%
- remaining activity at 10 µM ([6]; 10 uM): 104%
- remaining activity at 10 µM ([7]; 10 uM): 102%
